Conditions: acidic group
`O=C(O)CNC(=O)c1cccc(O)c1O` gave a pKa of 3.5. `O=c1[nH]c2ccccc2nc1[O-]` showed a pKa of 12.3. `COc1cc(S(C)=O)ccc1-c1nc2ncncc2[nH]1` (stereo unspecified) gave a pKa of 8.91. Compound `CC(Br)[N+](=O)[O-]` (stereo unspecified) has a pKa of 7.17. For `O=C1CCC(C(=O)O)N1` (stereo unspecified), the pKa was 3.25. For `C[N+](C)(C)c1ccc(O)cc1`, the pKa was 8.25. For `Cc1ccc(S)cc1`, the pKa was 6.47. `CCC(=O)CC(C)=O` gave a pKa of 9.36. Compound `Oc1ccc2cc(I)ccc2c1` has a pKa of 9.23. Work on `C[C@]12C[C@H](C(=O)O)OC(=O)[C@H]1CC[C@@]1(C)[C@@H]2[C@H]2CCC1(O)C(=O)O2` yielded a pKa of 3.5. In the case of `Cc1ccc(S(=O)(=O)NC(=O)OCc2ccc([N+](=O)[O-])cc2)cc1`, the pKa is reported as 3.8. Work on `CC(c1cccc(F)c1)[N+](=O)[O-]` (stereo unspecified) yielded a pKa of 7.05. Work on `C[NH+](C)c1ccc(/C=C/c2cc[n+](O)cc2)cc1` yielded a pKa of 1.05. Work on `Cc1nnc(S)n1N` yielded a pKa of 7.97. With `Nc1ccc(S(=O)(=O)Nc2ccncn2)cc1` the pKa was 6.17. In the case of `Cc1cnnc2c(O)cccc12`, the pKa is reported as 8.34. For `Cn1cnc2cc(O)ccc21`, the pKa was 9.85. `COc1ccc(NC(=S)c2ccccc2)cc1` gave a pKa of 11.4. Work on `Cc1ccccc1NN=C(C#N)C#N` yielded a pKa of 6.9. `O=C(O)CC(c1ccccc1)c1ccccc1Cl` (stereo unspecified) gave a pKa of 4.7. Compound `CC[NH+](CC)Cc1c(O)c(Cl)cc(Cl)c1Cl` has a pKa of 5.13. With `O=C(O)c1cncs1` the pKa was 2.99. In the case of `NS(=O)(=O)c1ccc([N+](=O)[O-])cc1`, the pKa is reported as 8.63. `CC(=O)Sc1ccc(O)cc1` showed a pKa of 8.88. `O=C(O)C#CC[NH+]1CCOCC1` showed a pKa of 1.79. `OCCC[n+]1cc(Br)c2ccccc2c1` showed a pKa of 12. Compound `C[NH+](C)CC(P(=O)([O-])O)P(=O)([O-])O` has a pKa of 5.75. In the case of `C[n+]1c2ccccc2nc2ccc(O)cc21`, the pKa is reported as 3. With `Cc1ccc(S(=O)(=O)NC(=O)OCc2ccccc2)cc1` the pKa was 4.21. `[O-]c1cc(O)nc[nH+]1` gave a pKa of 5.4. `Oc1cccc2cc3ccccc3cc12` showed a pKa of 9.88. With `O=C(O)c1cccc(/C=C/[N+](=O)[O-])c1` the pKa was 3.9. For `CCCC(O)C(C(=O)O)c1ccc(-c2ccccc2)cc1` (stereo unspecified), the pKa was 4.01. `N#Cc1ccc(CC(C#N)C#N)cc1` gave a pKa of 11. With `NS(=O)(=O)c1ccsc1C(=O)O` the pKa was 3.3. Work on `CC(=O)Nc1ccc(O)c([N+](=O)[O-])c1` yielded a pKa of 6.78. In the case of `Nc1cncnc1N`, the pKa is reported as 9.33. Compound `ONc1ccnc2ccccc12` has a pKa of 6.76. With `Fc1cccc(NC(=S)c2ccccc2)c1` the pKa was 10.3. In the case of `CCC(C)CC(=O)O` (stereo unspecified), the pKa is reported as 4.84. Compound `[O-]c1nc(S)c2[nH]cnc2n1` has a pKa of 11.4. `CCCCOc1cccc(C(=O)O)c1` showed a pKa of 4.25. Compound `CN(C)C(=O)n1nc(C(C)(C)C)nc1SCC(=O)O` has a pKa of 3.49. Work on `Cc1nc(NS(=O)(=O)c2ccc(N)cc2)no1` yielded a pKa of 4.4. For `COC(=O)c1ccc(O)c([N+](=O)[O-])c1`, the pKa was 5.4. `Cc1ccc(C[n+]2ccc(C(=O)Cc3ccccc3)cc2)cc1` gave a pKa of 8.91. `[S-]c1nc(S)c2[nH]cnc2n1` gave a pKa of 9.97. With `Nc1ccc(S(=O)(=O)Nc2nncs2)cc1` the pKa was 4.77. With `Oc1ccccc1-c1nnn[nH]1` the pKa was 4.36. `O=C(O)c1ccc[se]1` showed a pKa of 3.43. With `N#CO` the pKa was 3.67. `O=C(CC(=O)C(F)(F)F)c1cccs1` gave a pKa of 6.31. Compound `Nc1c2ccccc2[nH+]c2cc(O)ccc12` has a pKa of 6.63. `CC(C)(C)Cc1ccc(O)cc1` showed a pKa of 10.7. `FC(F)(F)c1cccc(NC=S)c1` gave a pKa of 10.8. `C[N+](C)(C)CCS` showed a pKa of 7.98. `c1ccc(CSc2cnn[nH]2)cc1` showed a pKa of 8.2. With `NC(=O)C(N)CO` (stereo unspecified) the pKa was 7.3. `COc1ccccc1CCC(=O)O` gave a pKa of 4.8. `C[C@@H]1[NH2+][C@H](CCCCCCCC(=O)O)CC[C@@H]1O` showed a pKa of 4.6. For `N#CC(C(=O)O)c1ccccc1` (stereo unspecified), the pKa was 1.77. In the case of `O=Cc1ccc(O)cc1`, the pKa is reported as 7.53. `Cc1ccc(N[N+](=O)[O-])cc1` showed a pKa of 4.88. `N#CC(C#N)c1ccc([N+](=O)[O-])cc1` showed a pKa of 2.35. `CC(C)(C)c1ccccc1C(=O)O` showed a pKa of 3.53. Work on `C[NH+](C)Cc1cc(-c2ccccc2)cc(C[NH+](C)C)c1O` yielded a pKa of 5.65. With `CC(=O)c1cc([N+](=O)[O-])ccc1C(=O)O` the pKa was 3.06. In the case of `O=C(O)C[NH+](CC(=O)O)Cc1cc(Cl)cc(C[NH+](CC(=O)O)CC(=O)O)c1O`, the pKa is reported as 2. For `Cc1cc(C(=O)O)n[nH]1`, the pKa was 3.99. Compound `CCC#CC#CC#CC(=O)O` has a pKa of 1.67. `C#CC(=O)O` gave a pKa of 1.89. `CC(I)C(=O)O` (stereo unspecified) gave a pKa of 3.21. With `C[n+]1cccc2cc(O)ccc21` the pKa was 7.15. `Cc1nc2ncncc2[nH]1` gave a pKa of 9.37.

Same assay, conditions: basic group
Compound `Cc1cc([C@@H](N)CO)c(O)c([C@@H](N)CO)c1` has a pKa of 9. Compound `Nc1nc2c(o1)CCCC2` has a pKa of 5.75. Compound `c1cc2c(nn1)CCCC2` has a pKa of 4.3. `COc1cc(S(C)=O)ccc1-c1nc2ncncc2[nH]1` (stereo unspecified) showed a pKa of 2.69. `OC[C@@H]1O[C@H](n2cnc3c([S-])ncnc32)[C@@H](O)[C@H]1O` showed a pKa of 7.63. With `Nc1nc(NCCO)nc(NCCO)n1` the pKa was 5.18. Compound `CC(O)CN(CCO)C(C)(C)C` (stereo unspecified) has a pKa of 9.2. `CON(C)C` showed a pKa of 3.65. With `Cc1cc(-c2ccc([NH3+])c(C)c2)ccc1N` the pKa was 3.38. Compound `c1ccc2cc(NCCNc3ccc4ccccc4c3)ccc2c1` has a pKa of 3.7. With `Cc1ccc2nc(C)c3c(c2c1)OC(C)C3C` (stereo unspecified) the pKa was 7.65. With `CC[NH+](CC)Cc1cn2nc(-c3ccccc3)cc(C)c2n1` the pKa was 2.2.
